Assay results taken from patent publication EP0346132A1, “Pharmaceutical products” (priority 1988, dated 1989).
≈ marks a conversion by molar mass, not a printed value. Entries after “also recorded” stand apart in the source; their conditions may differ. Like-named read-outs stand apart in the source and are kept apart here. Values belong to the compound of their own block, whether it stands above or below them.

Assays:
HIV [1] = experiment: Anti-HIV assay (protection of infected cells, XTT microculture tetrazolium assay); format: cell-based; conditions: for inhibit the infection and killing of human T lymphocytes (Th cells) by HIV / activity against HIV: statement in words; for activity against HIV: in vitro
Text: (§1) Compound 14a was screened for anti-HIV activity at the National Cancer Institute, Frederick Cancer Research Facility, Frederick, Maryland (FCRF). The screening mode operational procedures utilized at FCRF are set forth in detail in U.S. patent application Serial No. 07/146,252, filed January 20, 1988, the disclosure of which is incorporated by reference herein.
(§2) Figure 2 depicts a plot of the percentage of test cells over uninfected cells (%) for both infected and uninfected cells as a function of the increasing concentration of compound 14a.
(§3) The data plotted on Figure 2 permit the calculation of an effective concentration (EC₅₀) with respect to infected cells of about 0.15 µg/ml, an inhibitory concentration (IC₅₀) with respect to normal cells of about 100 µg/ml, and a therapeutic index (TI₅₀) of about 667. An earlier assay carried out at the Southern Research Institute yielded a TI₅₀ of about 200 when MT-2 cells were cultured with H9/HTLV-IIIB.
The following are the current screening mode operational procedures utilized at Southern Research Institute, Birmingham, AL. The procedure consists of 3 operations: 1) preparation of infected cells and distribution of the test plates; 2) preparation of drug dilution plates and distribution to the test plates; and 3) XTT assay procedure.
(§4) Cells to be treated in 50 ml conical centrifuge tubes for 30 minutes with 1-2 µg/ml of polybrene at 37°C, and pelleted (8 min., 1200 RPM). Virus is added [in RMPI-1640, 10% fetal calf serum (FCS), with interleukin-2 (IL-2) (for ATH8 cells), and antibiotics] to provide an MOI of approximately 0.01. An MOI of 0.01 is obtained by adding 10³ infectious units of virus to 10⁵ cells. Medium alone is added to virus-free control cells. The treated or control cells are incubated for 1 hour at 37°C in 5% CO₂ in air. Infected or uninfected cells are diluted to give 1 x 10⁴ cells/100 µl (2 x 10⁴ cells/100 µl for ATH8 cells). Infected or uninfected cells (100 µl) are distributed to appropriate wells of a 96 well, U-bottom, microtiter plate. Each compound dilution is tested in duplicate with infected cells. Uninfected cells are examined for drug sensitivity in a single well for each dilution of compound. Drug free control cells, infected and uninfected, are run in triplicate in wells B3 through D3 and E3 through G3, respectively. Wells A4 through A11 and H4 through H11 are drug blanks and get medium alone at this point. The plates are then incubated at 37°C in 5% CO₂ until ready for drug addition.
The first dilution of each drug is made in a test tube according to the dilution specified hereinbelow. The remaining dilutions are made in 96-well plates. All wells of each plate are filled with 225 µl of medium using a Cetus liquid handling system programed according to the plate filling worksheet. Twenty-five microliters (25 µl) of 2 diluted compounds are manually added to row 11 of a filled dilution plate in the same order in which the drugs will appear on the test plate. The two compounds are then serially diluted 10 fold from row 11 through row 4, using the Cetus liquid handling system, preprogramed with the serial dilution file worksheet.
Using a multi-channel pipettor with […], 100 µl of each drug dilution is transferred to the test plate; 100 µl from wells A4 through H4 of the dilution plate to the same wells of the test plate. Wells B3 through G3 and B2 through G2 receive medium alone.
Test plates are incubated at 37°C in 5% CO₂ in air for 7 days or until virus control cells are lysed as determined microscopically.
An XTT-PMS solution is prepared immediately prior to its addition to the wells of the culture dish [1 mg/ml XTT; 2,3-bis(2-methoxy-4-nitro-5-sulfophenyl)-5-(phenylamino)carbonyl-2H-tetrazolium hydroxide solution in media without FCS]. The stock PMS (phenazine methosulfate (15.3 mg PMS/ml FBS)) solution is diluted 1:100 (0.153 mg/ml). […]

HIV [2] = conditions: early clinical trials; statement in words; cited from earlier work
[3] = Anti-HIV assay, toxicity to uninfected (normal) cells, MT-2C; format: cell-based; conditions: human, mt-2c cells
Text: as §1, §3
(§5) Cells to be treated in 50 ml conical centrifuge tubes for 30 minutes with 1-2 µg/ml of polybrene at 37°C, and pelleted (8 min., 1200 RPM). Virus is added [in RMPI-1640, 10% fetal calf serum (FCS), with interleukin-2 (IL-2) (for ATH8 cells), and antibiotics] to provide an MOI of approximately 0.01. An MOI of 0.01 is obtained by adding 10³ infectious units of virus to 10⁵ cells. Medium alone is added to virus-free control cells. The treated or control cells are incubated for 1 hour at 37°C in 5% CO₂ in air. […] The plates are then incubated at 37°C in 5% CO₂ until ready for drug addition.

MT-2 = experiment: Anti-HIV assay, toxicity to uninfected (normal) cells, MT-2; format: cell-based; conditions: Homo sapiens, MT2; Figure 2; screened at FCRF; normal cells; read-out: inhibitory concentration (IC₅₀) with respect to normal cells
Text: as §1, §2, §3, §4

[4] = Anti-HIV assay, toxicity to uninfected (normal) cells, ATH-8; format: cell-based; conditions: human, ath-8 cells; first ID₅₀ column (c2); Cell Line ATH-8
Text: as §1, §3, §5

HSV-1 = experiment: Activity against Herpes Simplex Virus Type 1; conditions: statement in words
P-388 Leukemia Cells = experiment: P-388 mouse leukemia cell culture cytotoxicity assay; format: cell-based; conditions: P388, inhibitory (cytotoxicity) concentration for P-388 leukemia cells in culture, read-out: ED₅₀
Text: The ED₅₀ cytotoxicity concentrations determined for analogs 7a, 9a, 10a, 16a, and 17a in the P-388 mouse leukemia cell culture assay are given in Table II.

[5] = Anti-HIV assay, toxicity to uninfected (normal) cells, MT-2; format: cell-based; conditions: human, mt-2 cells, ID₅₀
Text: as §1, §2, §3, §4

[6] = Anti-HIV assay, toxicity to uninfected (normal) cells, CEM-C; format: cell-based; conditions: human, first ID₅₀ column (c2), Cell Line CEM-C
Text: as §1, §3, §5

HIV [7] = conditions: background and literature; statement in words; cited from earlier work
[8] = Human immunodeficiency virus 1, Cell Line MT-2C, read-out: ED₅₀
[9] = Human immunodeficiency virus 1, Cell Line MT-2, read-out: ED₅₀

Structure (SMILES): O=c1[nH]cnc2c1ncn2[C@H]1C=C[C@@H](CO)C1 (racemic) [Compound 8a, (±)-(1α,4α)-4-(6-Hydroxy-9H-purin-9-yl)-2-cyclopentenylcarbinol]
inhibit the infection and killing of human T lymphocytes (Th cells) by HIV (HIV [1]): effective

Structure (SMILES): Nc1nc(Cl)cc(N[C@H]2C=C[C@@H](CO)C2)n1 (racemic) [Compound 4a, (±)-(1α,4α)-4-[(2-Amino-6-chloro-4-pyrimidinyl)-amino]-2-cyclopentenylcarbinol]
inhibit the infection and killing of human T lymphocytes (Th cells) by HIV (HIV [1]): effective

Structure (SMILES): NC(=O)c1ncn([C@@H]2O[C@H](CO)[C@@H](O)[C@H]2O)n1 [Ribavirin, 1-β-D-Ribofuranosyl-1H-1,2,4-triazole-3-carboxamide]
effect in AIDS patients (HIV [2]): inhibited viral replication

EC50 (HIV [1]; [8]): 1.9 µg/mL (≈ 7.71 µM)
Structure (SMILES): Nc1nc(N)c2ncn([C@H]3C=C[C@@H](CO)C3)c2n1 (racemic) [Compound 15a, (±)-(1α,4α)-4-(2,6-Diamino-9H-purin-9-yl)-2-cyclopentenylcarbinol]
activity against HIV (HIV [1]): active | inhibit the infection and killing of human T lymphocytes (Th cells) by HIV (HIV [1]): effective | CC50 [3]: > 125 µg/mL

Structure (SMILES): Nc1c(Cl)ncnc1N[C@H]1C=C[C@@H](CO)C1 (racemic) [Compound 3a, (±)-(1α,4α)-4-[(5-Amino-6-chloro-4-pyrimidinyl)-amino]-2-cyclopentenylcarbinol]
inhibit the infection and killing of human T lymphocytes (Th cells) by HIV (HIV [1]): effective

Structure (SMILES): CC(=O)OC[C@@H]1C=C[C@H](n2cnc3c(=O)[nH]c(N)nc32)C1 (racemic) [1α-acetate ester of 14a, (1α,2α)-4-(2-Amino-6-hydroxy-9H-purin-9-yl)-2-cyclopentenyl Acetoxycarbinol]
inhibition at 6 µg/mL (HIV [1]; Human immunodeficiency virus 1, against HIV at 6 µg/ml): 28%

EC50 (HIV [1]; Human immunodeficiency virus 1, ATH-8, Cell Line ATH-8, read-out: ED₅₀): 0.2 µg/mL (≈ 0.809 µM) | EC50 (HIV [1]; Human immunodeficiency virus 1, Figure 2, screened at FCRF, read-out: effective concentration (EC₅₀) with respect to infected cells): ~0.15 µg/mL (≈ 0.607 µM)
Structure (SMILES): Nc1nc2c(ncn2[C@H]2C=C[C@@H](CO)C2)c(=O)[nH]1 (racemic) [Compound 14a, (±)-(1α,4α)-4-(2-Amino-6-hydroxy-9H-purin-9-yl)-2-cyclopentenyl carbinol]
therapeutic index (TI₅₀) (HIV [1]; Figure 2, screened at FCRF): about 667 | TI₅₀ (HIV [1]; earlier assay at Southern Research Institute, MT-2 cells cultured with H9/HTLV-IIIB): about 200 | activity against HIV (HIV [1]): strongly inhibits HIV infectivity in vitro | inhibit the infection and killing of human T lymphocytes (Th cells) by HIV (HIV [1]): effective | IC50 (MT-2): ~100 µg/mL (≈ 404 µM) | CC50 [4]: 55.3 µg/mL (≈ 224 µM) | active against HSV-1 (HSV-1): active

EC50 (HIV [1]; [9]): 2.3 µg/mL (≈ 9.95 µM)
Structure (SMILES): Nc1ncnc2c1ncn2[C@H]1C=C[C@@H](CO)C1 (racemic) [Compound 9a, (±)-(1α,4α)-4-(6-Amino-9H-purin-9-yl)-2-cyclopentenylcarbinol]
IC50 (P-388 Leukemia Cells): 40 µg/mL (≈ 173 µM) | activity against HIV (HIV [1]): active | inhibit the infection and killing of human T lymphocytes (Th cells) by HIV (HIV [1]): effective | CC50 [5]: 50 µg/mL (≈ 216 µM)

Structure (SMILES): Nc1nc(Cl)c2nnn([C@H]3C=C[C@@H](CO)C3)c2n1 (racemic) [Compound 16a]
IC50 (P-388 Leukemia Cells): 1 µg/mL (≈ 3.75 µM)

Structure (SMILES): Nc1nc(Cl)cc(N[C@H]2CC[C@@H](CO)C2)n1 (racemic) [Compound 4b]
inhibit the infection and killing of human T lymphocytes (Th cells) by HIV (HIV [1]): effective

EC50 (HIV [1]; [8]): 0.325 µg/mL (≈ 1.31 µM)
Structure (SMILES): Nc1nc(O)c2ncn([C@H]3C=C[C@@H](CO)C3)c2n1 [(-)14a, (1S,4R)-4-(2-Amino-6-hydroxy-9H-Purin-9-yl)-2-cyclopentenyl Carbinol]
activity against HIV (HIV [1]): highly active | CC50 [6]: 189 µg/mL (≈ 764 µM) | CC50 ([3]; first ID₅₀ column (c2), Cell Line MT-2C, read-out: ID₅₀): 135 µg/mL (≈ 546 µM)

Structure (SMILES): Nc1c(Cl)ncnc1N[C@H]1CC[C@@H](CO)C1 (racemic) [Compound 3b]
inhibit the infection and killing of human T lymphocytes (Th cells) by HIV (HIV [1]): effective

Structure (SMILES): Nc1nc(Cl)c(N=Nc2ccc(Cl)cc2)c(N[C@H]2C=C[C@@H](CO)C2)n1 (racemic) [Compound 5a, (±)-(1α,4α)-4-{[2-Amino-6-chloro-5-(4-chlorophenyl)-azo]-4-pyrimidinyl]-amino}-2-cyclopentenylcarbinol]
inhibit the infection and killing of human T lymphocytes (Th cells) by HIV (HIV [1]): effective

Structure (SMILES): OC[C@@H]1CC[C@H](n2cnc3c(O)ncnc32)O1 [ddI, 2′,3′-Dideoxyinosine]
activity against HIV in vitro (HIV [7]): inhibit HIV-induced cytopathic effects in vitro; also recorded: significant antiviral activity against HIV in vitro

Structure (SMILES): OC[C@@H]1C=C[C@H](n2cnc3c(S)ncnc32)C1 (racemic) [Compound 10a, (±)-(1α,4α)-4-(6-Mercapto-9H-purin-9-yl)-2-cyclopentenylcarbinol]
IC50 (P-388 Leukemia Cells): 3 µg/mL (≈ 12.1 µM) | activity against HIV (HIV [1]): active | inhibit the infection and killing of human T lymphocytes (Th cells) by HIV (HIV [1]): effective | CC50 [5]: 7.33 µg/mL (≈ 29.5 µM)

Structure (SMILES): OC[C@@H]1C=C[C@H](n2cnc3c(Cl)ncnc32)C1 (racemic) [Compound 7a, (±)-(1α,4α)-4-(6-chloro-9H-purin-9-yl)-2-cyclopentenylcarbinol]
IC50 (P-388 Leukemia Cells): 12 µg/mL (≈ 47.9 µM) | activity against HIV (HIV [1]): active | inhibit the infection and killing of human T lymphocytes (Th cells) by HIV (HIV [1]): effective | CC50 [5]: 58.5 µg/mL (≈ 233 µM)

Structure (SMILES): Nc1nc(Cl)c(N)c(N[C@H]2C=C[C@@H](CO)C2)n1 (racemic) [Compound 6a, (±)-(1α,4α)-4-[(2,5-Diamino-6-chloro-4-pyrimidinylamino]-2 cyclopentenylcarbinol]
inhibit the infection and killing of human T lymphocytes (Th cells) by HIV (HIV [1]): effective

EC50 (HIV [1]; [9]): 0.41 µg/mL (≈ 1.54 µM)
Structure (SMILES): Nc1nc(Cl)c2ncn([C@H]3C=C[C@@H](CO)C3)c2n1 (racemic) [Compound 13a, (±)-(1α,4α)-4-(2-Amino-6-chloro-9H-purin-9-yl)-2-cyclopentenyl carbinol]
activity against HIV (HIV [1]): active | inhibit the infection and killing of human T lymphocytes (Th cells) by HIV (HIV [1]): effective | CC50 [5]: 6.97 µg/mL (≈ 26.2 µM)

Structure (SMILES): [N-]=[N+]=N[C@H]1C[C@H](n2ccc(=O)[nH]c2=O)O[C@@H]1CO [CS-87, 3′-azido-2′,3′-dideoxyuridine]
activity against HIV in vitro (HIV [7]): significant activity against HIV in vitro; also recorded: significantly inhibit HIV replication in vitro

Structure (SMILES): Cc1cn([C@H]2C=C[C@@H](CO)O2)c(=O)[nH]c1=O [d4T, 2′,3′-dideoxy-2′,3′-didehydrothymidine]
activity against HIV in vitro (HIV [7]): potent inhibitor of HIV replication in vitro

Structure (SMILES): Nc1nc2c(nnn2[C@H]2C=C[C@@H](CO)C2)c(=O)[nH]1 (racemic) [Compound 17a]
IC50 (P-388 Leukemia Cells): 4.5 µg/mL (≈ 18.1 µM)
